# Experimental data as given in patent publication US11319318B2, “Pyridinones and isoquinolinones as inhibitors of the bromodomain BRD9” (Boehringer Ingelheim International GmbH, priority 2015, dated 2022).
# Molecular target: T1, bromodomain of BRD9 (GST fusion) / acetylated histone H4 peptide (BET Bromodomain Ligand) (Homo sapiens, UniProt Q9H8M2)
# T1 construct: A GST fusion protein of the bromodomain of BRD9; purchased BPS Biosciences #32519
# T1 sequence (Q9H8M2 136-240 limits assumed): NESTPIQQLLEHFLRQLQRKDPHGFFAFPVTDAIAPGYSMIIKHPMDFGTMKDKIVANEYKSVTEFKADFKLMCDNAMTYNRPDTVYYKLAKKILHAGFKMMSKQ
# Assay: BRD9-H4 Tetraacetylated Peptide Inhibition AlphaScreen
# Assay type: binding
# Description: BRD9-H4 Tetraacetylated Peptide Inhibition AlphaScreen
# This assay is used to identify compounds which inhibit the interaction of the bromodomain of BRD9 with a tetra-acetylated peptide based on the sequence of histone H4 (termed the “BET Bromodomain ligand” as purchased from BPS Biosciences).
# A GST fusion protein of the bromodomain of BRD9 and an acetylated histone H4 peptide (the “BET Bromodomain Ligand” are purchased as part of the BRD9 Inhibitor Screening Assay Kit at BPS Biosciences (Cat. Number: #32519)
# AlphaScreen Beads (Perkin Elmer):
# AlphaLISA Glutathione Acceptor Beads
# AlphaScreen Streptavidin Donor Beads
# Assay plates: Proxiplate-384 PLUS, white (PerkinElmer)
# The assay is done in a darkened room below 100 Lux.
# Compounds are dispensed onto assay plates using an Access Labcyte Workstation with the Labcyte Echo 550 from a DMSO solution. For the chosen highest concentration of 100 μM, 150 nl of compound solution are transferred from a 10 mM DMSO solution. A series of 11 concentrations is transferred for each compound at which each concentration is five-fold lower than the previous one (i.e. 100 μM, 20 μM, 4 μM, 0.8 μM, etc). DMSO is added such that every well has a total of 150 nl of DMSO.
# 15 μl of the resulting mix are added to the assay plates that contain 150 nl of the compounds. After 60 min at room temperature the signal is measured in a PerkinElmer Envision HTS Multilabel Reader using the AlphaScreen specifications from PerkinElmer.
# Each plate contains negative controls where biotinylated BET Bromodomain Ligand and GST-BRD9 are left out and replaced by assay buffer. Negative control values are entered as low basis value when using the software GraphPad Prism for calculations.
row,IC50 [nM],Compound
1,33,Cc1cc(-c2cc(C)c(=O)n(C)c2)ccc1C(=O)N1CCNCC1 [Compound I-162]
2,21,"COc1cc(-c2cc(C)c(=O)n(C)c2)ccc1CN1CCNCC1 [Compound I-190, 5-(3-methoxy-4-piperazin-1-ylmethyl-phenyl)-1,3-dimethyl-1H-pyridin-2-one]"
3,645,"CCn1cc(-c2ccc(C)c(NS(C)(=O)=O)c2)c2cc[nH]c2c1=O [III-1, N-[5-(6-Ethyl-7-oxo-6,7-dihydro-1H-pyrrolo[2,3-c]pyridin-4-yl)-2-methyl-phenyl]-methanesulfonamide]"
4,23,"Cc1cc(-c2ccc(CN3C[C@@H]4C[C@H]3CN4)cc2)cn(C)c1=O [Compound I-189, 5-{4-[(S)-1-(2,5-Diaza-bicyclo[2.2.1]hept-2-yl)methyl]-phenyl}-1,3-dimethyl-1H-pyridin-2-one]"
5,5440,CNc1ccc2c(-c3ccc(C)c(NS(C)(=O)=O)c3)cn(C)c(=O)c2c1 [II-40]
6,33,Cc1cc(-c2cc(C)c(=O)n(C)c2)cc(C)c1C(=O)N1CCNCC1 [Compound I-160]
7,7830,"CNc1cccc2c(=O)n(C)cc(-c3ccc(C)c(NS(C)(=O)=O)c3)c12 [II-39, N-[2-Methyl-5-(2-methyl-5-methylamino-1-oxo-1,2-dihydro-isoquinolin-4-yl)-phenyl]-methanesulfonamide]"
8,47,Cc1cc(-c2cc(C)c(=O)n(C)c2)ccc1CN(C)C [Compound I-35]
9,34,"Cc1cc(-c2ccc(C(=O)N3CCNCC3)cc2)cn(C)c1=O [Compound I-37, 1,3-Dimethyl-5-[4-(piperazine-1-carbonyl)-phenyl]-1H-pyridin-2-one]"
10,1160,Cc1ccc(-c2cn(C)c(=O)c3cccc(F)c23)cc1NS(C)(=O)=O [II-27]
